Results published in US8211463B2, “Use of glycolipids as adjuvants” (Helmholtz-Zentrum Fuer Infektionsforschung GmbH, priority 2006, dated 2012).

How the values were obtained:
[1] = tested on: spleen cells of immunized mice; experiment: Splenocyte proliferation ([3H]thymidine incorporation) after in vitro restimulation with β-Gal; assay type: in vivo, Balb/c mice; conditions: i.n.
Method: (§1) Co-administration of β-Gal with 10 μg glycolipids 1, 5 and 6 induced a strong cellular immune responses against the β-Gal antigen in Balb/c mice. Balb/c mice were immunized by the i.n. or s.c. route with β-Gal alone or together with glycolipids 1, 5 and 6 three times at 2-wk intervals. 10 days after the final immunization, the immunized mice were sacrificed. Splenocytes of mice immunized by the i.n. (A) and s.c. (B) route were collected and cultured with different concentrations of the β-Gal-Protein for 4 days. […] Curves represent [^3H]thymidine incorporation (counts per minute, cpm) and Stimulation index (SI) in each group. Each group consists of five mice. Data are representative of three separate experiments.
as §1, with “with 20 up to 30” for “with 10”, “glycolipids” for “glycolipids 1,”, “represent [3H]thymidine incorpoaration” for “represent [^3H]thymidine incorporation”
Experimental protocol: Spleens were removed and pooled for analysis of cellular immune responses. Cells were grown in RPMI 1640 supplemented with 10% fetal calf serum, 100 U/ml of penicillin, 50 μg/ml of streptomycin, 5×10^−5 M 2-mercaptoethanol and 1 mM L-glutamine (GIBCO BRL, Karlsruhe, Germany) and maintained at 37° C. in a humidified 5% CO2 atmosphere. Spleen cell suspensions were adjusted to 5×10^6 cells/ml in complete medium, cells were seeded with 100 μl per well in a flat-bottomed 96-well microtiter plate (Nunc) and plates were incubated for 4 days. Unstimulated spleen cells were incubated in the presence of different concentrations of the new adjuvants to analyze the in vitro stimulation capacity of glycolipids 1, 5 or 6, respectively. T cellmediated immune responses were investigated at day 38 by measuring the proliferation of cells recovered from spleens after in vitro restimulation with β-Gal. Said spleen cells were obtained from vaccinated mice—said mice where immunized as described in Example 2—and incubated in the presence of different concentrations of the soluble β-Gal antigen. Each concentration was tested in triplicates. During the final 18 h of culture, 1 μCi of [^3H]thymidine (Amersham International, Freiburg, Germany) was added to each well. Cells were then harvested on paper filters (Filtermat A; Wallac, Freiburg, Germany) by using a cell harvester (Inotech, Wohlen, Switzerland), and the amount of incorporated [^3H]thymidine into the DNA of proliferating cells was determined by a β-scintillation counter (Wallac 1450, Micro-Trilux). The results are expressed as the arithmetic mean of [^3H]thymidine uptake in cpm.

[2] = tested on: IFN-γ, IL-2, IL-4, IL-5, and TNFα; experiment: Cytometric bead array of cytokines in supernatants of restimulated spleen cells; assay type: in vivo, Balb/c mice; conditions: i.n., 10 μg glycolipid, restimulation with β-Gal antigen for 4 days
Method: Co-administration of β-Gal with 10 μg glycolipid 5 represented both Th1 and Th2 cytokine profiles activities in Balb/c mice. 10 days after the final immunization, the immunized Balb/c mice were sacrificed. A total of 5×10^6 cells/ml were stimulated with different concentrations of the β-Gal antigen for 4 days, and the levels of IFNγ and IL-4 in the supernatant were examined by the BD Cytometric bead array. Cytokine production of the spleen cells were analyzed using BD CBA kit according to the manufacturer's instructions. […] Curves represent cytokine concentration (pg/ml) and Stimulation index (SI) in response to enhanced antigen concentration in each group. Each group consists of five mice. Data are representative of two separate experiments.
To characterize the type of Th response stimulated following immunization, the content of IFN-γ, IL-2, IL-4, IL-5, and TNFα was measured in supernatants from in vitro re-stimulated spleen cells (FIGS. 8 and 9) by the Cytometric Bead Array. Culture supernatants from proliferating cells were collected on days 2 and 4, and stored at −70° C. Determinations of IFN-γ, TNFα, IL-2, IL-4, and IL-5 were performed by cytometric bead array analysis using the commercial kit from BectonDickinson, according to the manufacturer's instructions. […] The probes were analyzed subsequently by flow cytometry as described in the protocol of BD.

[3] = 10 μg glycolipid, restimulation with β-Gal for 4 days

Row | SMILES | Stimulation index (SI), [3H]thymidine incorporation of spleen cells [1, 3] | Stimulation index (SI), [3H]thymidine incorporation of spleen cells ([1]; 20 up to 30 μg glycolipid, restimulation with β-Gal for 4 days) | Stimulation index (SI), [3H]thymidine incorporation of spleen cells ([1]; highest concentration (30 μg per animal)) | expression of proinflammatory (TNFα), Th1 (IFNγ and IL-2) and Th2 (IL-5) cytokines by spleen cells [2]
1 | CCCCCCCC/C=C\CCCCCCCCOCC(COCCCCCCCC/C=C\CCCCCCCC)O[C@@H]1O[C@H](CO)[C@@H](O[C@H]2O[C@H](CO)[C@@H](O)[C@H](O)[C@H]2O)[C@H](O)[C@H]1O (relative stereo) [glycolipid 1, 1,3-Di-O[cis-9-octadecenyl]-2-O-[4′-O-(α-D-glycopyranosyl)-β-D-glycopyranosyl]-sn-glycerol] | no effect | – | – | –
2 | CCCCCCCCCCCCCCOCC(COCCCCCCCCCCCCCC)O[C@@H]1O[C@H](CO[C@H]2O[C@H](CO)[C@H](O)[C@H](O)[C@H]2O)[C@@H](O)[C@H](O)[C@H]1O [glycolipid 6, 1,3-di-O-tetradecyl-2-O-[6′-O-(α-D-galactopyranosyl)-β-D-glucopyranosyl]-sn-glycerol] | no effect | strong responses | > 3 | –
3 | CCCCCCCCCCCCCCOCC(COCCCCCCCCCCCCCC)O[C@@H]1O[C@H](CO)[C@@H](O[C@H]2O[C@H](CO)[C@@H](O)[C@H](O)[C@H]2O)[C@H](O)[C@H]1O [glycolipid 5, 1,3-Di-O-tetradecyl-2-O-[4′-O-(α-D-glucopyranosyl)-β-D-glucopyranosyl]-sn-glycerol] | – | – | – | enhanced expression
